In patent US20250114374A1, “BCL-2 INHIBITORS” (Newave Pharmaceutical Inc., priority 2021, published 2025):
pIC50: −log10 of the molar value.

The compounds below were run on RS4; 11 with G101V mutation (assay: In vitro anti-proliferation assay (ATPlite luminescence) in BCL-2-dependent ALL cell line RS4;11 with G101V mutation). Settings: Homo sapiens, RS4-11, 72 h; read-out: RS411-G101V IC50.
Type: cell-based
Outline: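 IC50 came from luminescent ATP quantification (ATPlite) following cell lysis. Compound dose ranges were applied for roughly 72 h to about 1×10^4 G101V-mutant RS4;11 cells per well, in 10% FBS medium.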

| pIC50 | SMILES |
| --- | --- |
| 6.54 | CC(C)Oc1ccccc1[C@@H]1CN(S(=O)(=O)c2ccc(F)c(F)c2)CCN1C1CC2(CCN(c3ccc(C(=O)NS(=O)(=O)c4cc5c(c([N+](=O)[O-])c4)N[C@H](C4CCOCC4)CO5)c(N4c5cc6cc[nH]c6nc5O[C@H]5COCC[C@@H]54)c3)CC2)C1 [Example 245, 4-(2-((R)-4-((3,4-difluorophenyl)sulfonyl)-2-(2-isopropoxyphenyl)piperazin-1-yl)-7-azaspiro[3.5]nonan-7-yl)-N-(((R)-5-nitro-3-(tetrahydro-2H-pyran-4-yl)-3,4-dihydro-2H-benzo[b][1,4]oxazin-7-yl)sulfonyl)-2-((5aS,9aR)-6,7,9,9a-tetrahydro-1H-pyrano[3,4-b]pyrrolo[3′,2′:5,6]pyrido[3,2-e][1,4]oxazin-5(5aH)-yl)benzamide] |
| 6.68 | CC[C@H](c1ccc(F)c(F)c1)N1CCN(C2CC3(CCN(c4ccc(C(=O)NS(=O)(=O)c5cc6c(c([N+](=O)[O-])c5)N[C@H](C5CCOCC5)CO6)c(N5c6cc7cc[nH]c7nc6O[C@H]6COCC[C@@H]65)c4)CC3)C2)[C@H](c2ccccc2OC(C)C)C1 [Example 246, 4-(2-((R)-4-((R)-1-(3,4-difluorophenyl)propyl)-2-(2-isopropoxyphenyl)piperazin-1-yl)-7-azaspiro[3.5]nonan-7-yl)-N-(((R)-5-nitro-3-(tetrahydro-2H-pyran-4-yl)-3,4-dihydro-2H-benzo[b][1,4]oxazin-7-yl)sulfonyl)-2-((5aS,9aR)-6,7,9,9a-tetrahydro-1H-pyrano[3,4-b]pyrrolo[3′,2′:5,6]pyrido[3,2-e][1,4]oxazin-5(5aH)-yl)benzamide] |
| 7.34 | CC[C@@H](c1ccc(F)c(F)c1)N1CCN(C2CC3(CCN(c4ccc(C(=O)NS(=O)(=O)c5cc6c(c([N+](=O)[O-])c5)N[C@H](C5CCOCC5)CO6)c(N5c6cc7cc[nH]c7nc6O[C@H]6COCC[C@@H]65)c4)CC3)C2)[C@H](c2ccccc2OC(C)C)C1 [Example 247, 4-(2-((R)-4-((S)-1-(3,4-difluorophenyl)propyl)-2-(2-isopropoxyphenyl)piperazin-1-yl)-7-azaspiro[3.5]nonan-7-yl)-N-(((R)-5-nitro-3-(tetrahydro-2H-pyran-4-yl)-3,4-dihydro-2H-benzo[b][1,4]oxazin-7-yl)sulfonyl)-2-((5aS,9aR)-6,7,9,9a-tetrahydro-1H-pyrano[3,4-b]pyrrolo[3′,2′:5,6]pyrido[3,2-e][1,4]oxazin-5(5aH)-yl)benzamide] |
| 8.73 | Cc1ccccc1[C@@H]1CN(Cc2cnc(N3CCOC[C@@H]3C)c3c2C(C)(C)CCO3)CCN1C1CC2(CCN(c3ccc(C(=O)NS(=O)(=O)c4cc5c(c([N+](=O)[O-])c4)N[C@H](C4CCOCC4)CO5)c(N4c5cc6cc[nH]c6nc5O[C@H]5COCC[C@@H]54)c3)CC2)C1 [Example 252, 4-(2-((R)-4-((4,4-dimethyl-8-((S)-3-methylmorpholino)-3,4-dihydro-2H-pyrano[2,3-c]pyridin-5-yl)methyl)-2-(o-tolyl)piperazin-1-yl)-7-azaspiro[3.5]nonan-7-yl)-N-(((R)-5-nitro-3-(tetrahydro-2H-pyran-4-yl)-3,4-dihydro-2H-benzo[b][1,4]oxazin-7-yl)sulfonyl)-2-((5aS,9aR)-6,7,9,9a-tetrahydro-1H-pyrano[3,4-b]pyrrolo[3′,2′:5,6]pyrido[3,2-e][1,4]oxazin-5(5aH)-yl)benzamide] |

Same assay, conditions: cellular anti-proliferative IC50, about 72 hours, medium with 10% FBS, ATPlite; read-out: RS411-G101V IC50

| SMILES | pIC50 |
| --- | --- |
| CC(C)Oc1ccccc1[C@@H]1CN(Cc2ccc(F)c(F)c2)CCN1C1CC2(CCN(c3ccc(C(=O)NS(=O)(=O)c4cc5c(c([N+](=O)[O-])c4)N[C@H](C4CCOCC4)CO5)c(N4c5cc6cc[nH]c6nc5O[C@H]5CCOC[C@@H]54)c3)CC2)C1 [Example 240, 4-{2-[(2R)-4-[(3,4-difluorophenyl)methyl]-2-(2-isopropoxyphenyl)piperazin-1-yl]-7-azaspiro[3.5]nonan-7-yl}-2-[(3S,8S)-5,9-dioxa-2,11,13-triazatetracyclo[8.7.0.0^{3,8}.0^{12,16}]heptadeca-1(10),11,14,16-tetraen-2-yl]-N-[(3R)-5-nitro-3-(oxan-4-yl)-3,4-dihydro-2H-1,4-benzoxazin-7-ylsulfonyl]benzamide] | 8.16 |
| CC(C)Oc1ccccc1[C@@H]1CN(Cc2ccc(F)c(F)c2)CCN1C1CC2(CCN(c3ccc(C(=O)NS(=O)(=O)c4cc5c(c([N+](=O)[O-])c4)N[C@H](C4CCOCC4)CO5)c(N4c5cc6cc[nH]c6nc5O[C@@H]5CCOC[C@H]54)c3)CC2)C1 [Example 241, 4-{2-[(2R)-4-[(3,4-difluorophenyl)methyl]-2-(2-isopropoxyphenyl)piperazin-1-yl]-7-azaspiro[3.5]nonan-7-yl}-2-[(3R,8R)-5,9-dioxa-2,11,13-triazatetracyclo[8.7.0.0^{3,8}.0^{12,16}]heptadeca-1(10),11,14,16-tetraen-2-yl]-N-[(3R)-5-nitro-3-(oxan-4-yl)-3,4-dihydro-2H-1,4-benzoxazin-7-ylsulfonyl]benzamide] | 8.35 |
| CC(C)Oc1ccccc1[C@@H]1CN([C@H](C)c2ccc(F)c(F)c2)CCN1C1CC2(CCN(c3ccc(C(=O)NS(=O)(=O)c4cc5c(c([N+](=O)[O-])c4)N[C@H](C4CCOCC4)CO5)c(N4c5cc6cc[nH]c6nc5O[C@H]5COCC[C@@H]54)c3)CC2)C1 [Example 242, 4-{2-[(2R)-4-[(1R)-1-(3,4-difluorophenyl)ethyl]-2-(2-isopropoxyphenyl)piperazin-1-yl]-7-azaspiro[3.5]nonan-7-yl}-2-[(3R,8S)-2,5-dioxa-9,15,17-triazatetracyclo[8.7.0.0^{3,8}.0^{12,16}]heptadeca-1(10),11,13,16-tetraen-9-yl]-N-[(3R)-5-nitro-3-(oxan-4-yl)-3,4-dihydro-2H-1,4-benzoxazin-7-ylsulfonyl]benzamide] | 7.01 |
| CC(C)Oc1ccccc1[C@@H]1CN([C@@H](C)c2ccc(F)c(F)c2)CCN1C1CC2(CCN(c3ccc(C(=O)NS(=O)(=O)c4cc5c(c([N+](=O)[O-])c4)N[C@H](C4CCOCC4)CO5)c(N4c5cc6cc[nH]c6nc5O[C@H]5COCC[C@@H]54)c3)CC2)C1 [Example 243, 4-{2-[(2R)-4-[(1S)-1-(3,4-difluorophenyl)ethyl]-2-(2-isopropoxyphenyl)piperazin-1-yl]-7-azaspiro[3.5]nonan-7-yl}-2-[(3R,8S)-2,5-dioxa-9,15,17-triazatetracyclo[8.7.0.0^{3,8}.0^{12,16}]heptadeca-1(10),11,13,16-tetraen-9-yl]-N-[(3R)-5-nitro-3-(oxan-4-yl)-3,4-dihydro-2H-1,4-benzoxazin-7-ylsulfonyl]benzamide] | 7.65 |
| CC(C)Oc1ccccc1[C@@H]1CN([C@@H]2COCc3c2ccc(F)c3F)CCN1C1CC2(CCN(c3ccc(C(=O)NS(=O)(=O)c4cc5c(c([N+](=O)[O-])c4)N[C@H](C4CCOCC4)CO5)c(N4c5cc6cc[nH]c6nc5O[C@H]5COCC[C@@H]54)c3)CC2)C1 [Example 248, 4-{2-[(2R)-4-[(4S)-7,8-difluoro-3,4-dihydro-1H-2-benzopyran-4-yl]-2-(2-isopropoxyphenyl)piperazin-1-yl]-7-azaspiro[3.5]nonan-7-yl}-2-[(3R,8S)-2,5-dioxa-9,15,17-triazatetracyclo[8.7.0.0^{3,8}.0^{12,16}]heptadeca-1(10),11,13,16-tetraen-9-yl]-N-[(3R)-5-nitro-3-(oxan-4-yl)-3,4-dihydro-2H-1,4-benzoxazin-7-ylsulfonyl]benzamide] | 8.01 |
| CC(C)Oc1ccccc1[C@@H]1CN([C@H]2COCc3c2ccc(F)c3F)CCN1C1CC2(CCN(c3ccc(C(=O)NS(=O)(=O)c4cc5c(c([N+](=O)[O-])c4)N[C@H](C4CCOCC4)CO5)c(N4c5cc6cc[nH]c6nc5O[C@H]5COCC[C@@H]54)c3)CC2)C1 [Example 249, 4-{2-[(2R)-4-[(4R)-7,8-difluoro-3,4-dihydro-1H-2-benzopyran-4-yl]-2-(2-isopropoxyphenyl)piperazin-1-yl]-7-azaspiro[3.5]nonan-7-yl}-2-[(3R,8S)-2,5-dioxa-9,15,17-triazatetracyclo[8.7.0.0^{3,8}.0^{12,16}]heptadeca-1(10),11,13,16-tetraen-9-yl]-N-[(3R)-5-nitro-3-(oxan-4-yl)-3,4-dihydro-2H-1,4-benzoxazin-7-ylsulfonyl]benzamide] | 7.92 |
| COc1c(N2CCOCC2)ncc2c1COC[C@H]2N1CCN(C2CC3(CCN(c4ccc(C(=O)NS(=O)(=O)c5cc6c(c([N+](=O)[O-])c5)N[C@H](C5CCOCC5)CO6)c(N5c6cc7cc[nH]c7nc6O[C@H]6COCC[C@@H]65)c4)CC3)C2)[C@H](c2ccccc2OC(C)C)C1 [Example 250, 2-[(3R,8S)-2,5-dioxa-9,15,17-triazatetracyclo[8.7.0.0^{3,8}.0^{12,16}]heptadeca-1(10),11,13,16-tetraen-9-yl]-4-{2-[(2R)-2-(2-isopropoxyphenyl)-4-[(4S)-8-methoxy-7-(morpholin-4-yl)-1H,3H,4H-pyrano[4,3-c]pyridin-4-yl]piperazin-1-yl]-7-azaspiro[3.5]nonan-7-yl}-N-[(3R)-5-nitro-3-(oxan-4-yl)-3,4-dihydro-2H-1,4-benzoxazin-7-ylsulfonyl]benzamide] | 8.00 |
| COc1c(N2CCOC[C@@H]2C)ncc2c1COC[C@@H]2N1CCN(C2CC3(CCN(c4ccc(C(=O)NS(=O)(=O)c5cc6c(c([N+](=O)[O-])c5)N[C@H](C5CCOCC5)CO6)c(N5c6cc7cc[nH]c7nc6O[C@H]6COCC[C@@H]65)c4)CC3)C2)[C@H](c2ccccc2OC(C)C)C1 [Example 251, 2-[(3R,8S)-2,5-dioxa-9,15,17-triazatetracyclo[8.7.0.0^{3,8}.0^{12,16}]heptadeca-1(10),11,13,16-tetraen-9-yl]-4-{2-[(2R)-2-(2-isopropoxyphenyl)-4-[(4R)-8-methoxy-7-[(3S)-3-methylmorpholin-4-yl]-1H,3H,4H-pyrano[4,3-c]pyridin-4-yl]piperazin-1-yl]-7-azaspiro[3.5]nonan-7-yl}-N-[(3R)-5-nitro-3-(oxan-4-yl)-3,4-dihydro-2H-1,4-benzoxazin-7-ylsulfonyl]benzamide] | 7.57 |
